Patent publication US20190169140A1, “IDO1 INHIBITOR AND PREPARATION METHOD AND APPLICATION THEREOF” (SHANDONG LUYE PHARMACEUTICAL CO., LTD., priority 2016, published 2019)
Values after ≈ are worked out from the molar mass of the structure shown. Like-named read-outs stand apart in the source and are kept apart here. Marks after values point to notes of the source that are not given here.

Tests used:
[1] = Measurement of thermodynamic solubility; type: physicochemical; conditions: aqueous buffer, thermodynamic from solid, room temperature
Description: II. Measurement of Thermodynamic Solubility
1. Solutions for Thermodynamic Solubility
Buffer A (pH 2.0): 50 mM phosphate buffer, with a pH value of 2.0.
Buffer B (pH 7.4): 50 mM phosphate buffer, with a pH value of 7.4.
50% acetonitrile solution and 50% buffer (A, B) were mixed together to obtain a diluent. 10 mM (20 μL/compound) stock solution was added to acetonitrile (480 μL/compound), and mixed with the buffer (A, B) (500 μL/compound) to obtain 200 μM UV detection standard solution. The 200 μM UV detection standard solution was diluted with the diluent 10 times or 200 times the amount of the standard solution, so as to acquire 20 μM or 1 μM UV standard solution. 1, 20, and 200 μM UV standard solutions were taken as standard samples for thermodynamic solubility test.
No less than 2 mg of a sample powder was weighed and placed in a Whatman miniuniprep vial. If it was required to test the thermodynamic solubility of the sample in multiple buffers (A, B), an independent vial was demanded for each test. 450 μL of the buffer (A, B) was respectively added to each Whatman miniuniprep vial. After the buffer was added, a piston cover of the Whatman miniuniprep functioning to filter was put on and pressed above a liquid surface, such that a filter screen was in contact with the buffer (A, B) during the shaking. The solubility sample was shaken in a vortex manner for 1 minute, and phenomenon of the solution was recorded. The sample was shaken at 600 rpm at a room temperature (approximately 22˜25° C.) for 24 hours. The filtering cover of Whatman Miniunipreps was pressed to a bottom, to obtain a filtrate of the sample solubility solution. All sample vials should be recorded for insoluble substances before and after the filtration and leakage phenomenon thereof. The buffer (A, B) was 50-fold diluted to obtain a sample diluent.
3 UV standard solutions, from low concentration to high concentration, were injected into HPLC, and then the diluent and the supernatant of the compound to be tested were injected. The sample to be tested was in duplicate. Integration was carried out for UV chromatographic peaks. A standard curve was established by simulation and the thermodynamic solubility of the sample was calculated. HPLC conditions were as follows.

[2] = test system: mice colon cancer CT26; experiment: Efficacy against mice colon cancer CT26 transplanted tumor; type: in vivo, BALB/c mice; conditions: for Inhibitory Rate for Tumor Weight / Tumor Weight / mean tumor weight compared with the control group: end of experiment; for tumor inhibitory effect compared at the same dose: same dose of 100 mg/kg
Description: Research on Efficacy of Anti-Mice Colon Cancer Ct26
In the present research, colon cancer CT26 models were employed to compare differences between compound 231 and compounds 360 and 117 in antitumor effects.
Therefore, the dose of the two compounds, compound 360 and compound 117, in the present experiment was set as 100 mg/kg. In order to observe dose-efficacy relevance of 231, a dose of the compound 231 was set as 25, 50, 100, 200 mg/kg in the present experiment. All drugs were administered by gavage, twice a day.
According to document reports, mice colon cancer CT26 is a commonly used tumor model for evaluating immunological drugs. […] Therefore, CT26-bearng BALB/c models were chosen in the present experiment for research on efficacy and tissue distribution.
In a super-clean bench, each mouse was subcutaneously inoculated with 0.2 mL of the tumor cell suspension at shoulder, with an inoculation amount of 1×10^5 per mouse. When a tumor block grew to be 500-1000 mm^3, the tumor block was taken out, cut into pieces with scissors, and subcutaneously inoculated at shoulder at the mouse's back using a subcutaneous embedding implantation puncture needle (with a diameter of 1.2 mm).
The day of tumor inoculation was defined as Day 0, and the inoculated animals were grouped randomly on the day of inoculation. One day after the inoculation (Day 1), the administration was started. The experiment had 7 groups in total, with 12 animals in each group. See details in Table 12 for information on animal grouping and administration.
It was an experimental cycle when the tumor in the control group grew to have a volume of 3000 mm^3. The following indexes were observed during the experiment.
(1) As for tumor growth curve, when the tumor was measurable, a maximum diameter (a) and a minimum diameter (b) of the tumor were measured once every other day, to calculate the tumor volume (a calculation formula is V=½×a×b^2), and anti-tumor effect of the tested drug was observed dynamically.
(4) As for tumor inhibitory rate, when the experiment was ended, the mice were killed by cervical dislocation, the tumor blocks were taken out and weighed, to calculate the tumor inhibitory rate, where tumor inhibitory rate=(mean tumor weight of the control group-mean tumor weight of the treatment group)/mean tumor weight of the control group×100%), and the tumor blocks were photographed with a digital camera for recording.

[3] = 50 mM phosphate buffer pH 2.0, 24 hours, read-out: thermodynamic solubility (pH: 2.0)
[4] = 50 mM phosphate buffer pH 7.4, 24 hours, read-out: thermodynamic solubility (pH: 7.4)

NS(=O)(=O)NCCOc1nonc1/C(=N/O)Nc1ccc(F)c(Br)c1 [Compound 0015]
solubility thermodynamic at 24 h [1, 3]: 138 µM (≈ 60.6 µg/mL) | solubility thermodynamic at 24 h [1, 4]: 298 µM (≈ 131 µg/mL)

NS(=O)(=O)NCCSc1nonc1/C(=N/O)Nc1ccc(F)c(Br)c1 [Compound 0117]
mean tumor volume compared with the control group during the test ([2]; 100 mg/kg gavage BID): always less than that of the control group, but without statistical difference | animals without tumor block when the test was ended ([2]; 100 mg/kg gavage BID, 12 animals): one animal on which no tumor block grew | Mean Tumor Volume ([2]; 100 mg/kg gavage BID, D12): 517.3 ± 261.9 mm^3 | Mean Tumor Volume ([2]; 100 mg/kg gavage BID, D14): 760.9 ± 335.7 mm^3 | Mean Tumor Volume ([2]; 100 mg/kg gavage BID, D17): 1410.5 ± 734.0 mm^3 | Mean Tumor Volume ([2]; 100 mg/kg gavage BID, Day8): 130.1 ± 31.1 mm^3 | Mean Tumor Volume ([2]; 100 mg/kg gavage BID, Day10): 262.3 ± 131.2 mm^3 | Inhibitory Rate for Tumor Weight ([2]; 100 mg/kg gavage BID): 14.4% | Tumor Weight ([2]; 100 mg/kg gavage BID): 1.71 ± 0.76 g | mean tumor weight compared with the control group ([2]; 100 mg/kg gavage BID): less than that of the control group, but without statistical difference | solubility thermodynamic at 24 h [1, 3]: 2620 µM (≈ 1190 µg/mL) | solubility thermodynamic at 24 h [1, 4]: 2610 µM (≈ 1190 µg/mL)

NC(=O)NCCSc1nonc1/C(=N/O)Nc1ccc(F)c(Br)c1 [Compound 0231]
tumor volume compared with the control group ([2]; 25 mg/kg (low dose) gavage BID): remarkably less than that of the control group at Day 10 and Day 12 | Mean Tumor Volume ([2]; 25 mg/kg gavage BID, D12): 411.7 ± 275.4* mm^3 | Mean Tumor Volume ([2]; 25 mg/kg gavage BID, D14): 721.9 ± 575.3 mm^3 | Mean Tumor Volume ([2]; 25 mg/kg gavage BID, D17): 1471.2 ± 1269.4 mm^3 | Mean Tumor Volume ([2]; 25 mg/kg gavage BID, Day8): 69.5 ± 21.9 mm^3 | Mean Tumor Volume ([2]; 25 mg/kg gavage BID, Day10): 229.1 ± 76.7* mm^3 | Inhibitory Rate for Tumor Weight ([2]; 25 mg/kg gavage BID): 25.9% | Tumor Weight ([2]; 25 mg/kg gavage BID): 1.49 ± 1.16 g | Mean Tumor Volume ([2]; 50 mg/kg gavage BID, D12): 436.8 ± 204.9* mm^3 | Mean Tumor Volume ([2]; 50 mg/kg gavage BID, D14): 661.5 ± 255.6* mm^3 | Mean Tumor Volume ([2]; 50 mg/kg gavage BID, D17): 1242.2 ± 500.9* mm^3 | Mean Tumor Volume ([2]; 50 mg/kg gavage BID, Day8): 94.5 ± 52.5 mm^3 | Mean Tumor Volume ([2]; 50 mg/kg gavage BID, Day10): 234.6 ± 117.6* mm^3 | Inhibitory Rate for Tumor Weight ([2]; 50 mg/kg gavage BID): 29.2% | Tumor Weight ([2]; 50 mg/kg gavage BID): 1.42 ± 0.56 g | Mean Tumor Volume ([2]; 100 mg/kg gavage BID, D12): 372.4 ± 308.9* mm^3 | Mean Tumor Volume ([2]; 100 mg/kg gavage BID, D14): 598.6 ± 442.3* mm^3 | Mean Tumor Volume ([2]; 100 mg/kg gavage BID, D17): 1195.4 ± 779.8* mm^3 | Mean Tumor Volume ([2]; 100 mg/kg gavage BID, Day8): 97.9 ± 86.9 mm^3 | Mean Tumor Volume ([2]; 100 mg/kg gavage BID, Day10): 168.2 ± 145.5* mm^3 | Inhibitory Rate for Tumor Weight ([2]; 100 mg/kg gavage BID): 34.0% | Tumor Weight ([2]; 100 mg/kg gavage BID): 1.32 ± 1.09 g | Mean Tumor Volume ([2]; 200 mg/kg gavage BID, D12): 300.4 ± 231.8* mm^3 | Mean Tumor Volume ([2]; 200 mg/kg gavage BID, D14): 512.2 ± 351.8* mm^3 | Mean Tumor Volume ([2]; 200 mg/kg gavage BID, D17): 909.7 ± 544.6* mm^3 | Mean Tumor Volume ([2]; 200 mg/kg gavage BID, Day8): 74.2 ± 32.2 mm^3 | Mean Tumor Volume ([2]; 200 mg/kg gavage BID, Day10): 160.5 ± 114.9* mm^3 | Inhibitory Rate for Tumor Weight ([2]; 200 mg/kg gavage BID): 56.8% | Tumor Weight ([2]; 200 mg/kg gavage BID): 0.87 ± 0.74 g | mean tumor weight compared with the control group ([2]; 200 mg/kg gavage BID): remarkably less than that of the control group | mean tumor weight compared with the control group ([2]; 25, 50, 100 mg/kg gavage BID): less than that of the control group, but without statistical difference | tumor inhibitory effect, dose dependence ([2]; 25, 50, 100, 200 mg/kg gavage BID): dose-dependent manner | tumor volume compared with the control group ([2]; dose equal to or greater than 50 mg/kg, Day 10 to end of test): always remarkably less than that of the control group | tumor inhibitory effect compared at the same dose [2]: equivalent tumor inhibitory effect | solubility thermodynamic at 24 h [1, 3]: 155 µM (≈ 65 µg/mL) | solubility thermodynamic at 24 h [1, 4]: 125 µM (≈ 52.4 µg/mL)

NS(=O)(=O)NCCNc1nonc1C(=NO)Nc1ccc(F)c(Br)c1 [Compound 360, INCB024360, reference compound]
mean tumor volume compared with the control group during the test ([2]; 100 mg/kg gavage BID): always less than that of the control group, but without statistical difference | Mean Tumor Volume ([2]; 100 mg/kg gavage BID, D12): 512.0 ± 240.2 mm^3 | Mean Tumor Volume ([2]; 100 mg/kg gavage BID, D14): 949.2 ± 773.3 mm^3 | Mean Tumor Volume ([2]; 100 mg/kg gavage BID, D17): 1531.0 ± 606.0 mm^3 | Mean Tumor Volume ([2]; 100 mg/kg gavage BID, Day8): 95.2 ± 36.6 mm^3 | Mean Tumor Volume ([2]; 100 mg/kg gavage BID, Day10): 303.5 ± 233.3 mm^3 | Inhibitory Rate for Tumor Weight ([2]; 100 mg/kg gavage BID): 29.5% | Tumor Weight ([2]; 100 mg/kg gavage BID): 1.41 ± 0.81 g | mean tumor weight compared with the control group ([2]; 100 mg/kg gavage BID): less than that of the control group, but without statistical difference | tumor inhibitory rate for CT26 ([2]; preliminary experimental research, gavage 100 mg/kg bid): 30-50% | tumor inhibitory effect compared at the same dose [2]: equivalent tumor inhibitory effect | solubility thermodynamic at 24 h [1, 3]: 65 µM (≈ 28.5 µg/mL) | solubility thermodynamic at 24 h [1, 4]: 160 µM (≈ 70.1 µg/mL)
